Activity calls are given as the source filed them. No cut-off for these calls is given here.
Key:
[1] = target: Adrenergic receptor alpha-2 (Rattus norvegicus) (UniProt P22086+P19328+P22909); experiment: Displacement of [3H]-clonidine from adrenergic alpha2 receptor in Wistar rat cortex at 10^-5 M incubated for 25 mins by microbeta liquid scintillation counting analysis
[2] = target: T1, Adrenergic receptor alpha-1 (Rattus norvegicus, UniProt P15823+P23944+P43140); experiment: Displacement of [3H][…]prazosin from adrenergic alpha1 receptor in Wistar rat cortex incubated for 30 mins by microbeta liquid scintillation counting analysis
T1 sequence (P15823 whole entry): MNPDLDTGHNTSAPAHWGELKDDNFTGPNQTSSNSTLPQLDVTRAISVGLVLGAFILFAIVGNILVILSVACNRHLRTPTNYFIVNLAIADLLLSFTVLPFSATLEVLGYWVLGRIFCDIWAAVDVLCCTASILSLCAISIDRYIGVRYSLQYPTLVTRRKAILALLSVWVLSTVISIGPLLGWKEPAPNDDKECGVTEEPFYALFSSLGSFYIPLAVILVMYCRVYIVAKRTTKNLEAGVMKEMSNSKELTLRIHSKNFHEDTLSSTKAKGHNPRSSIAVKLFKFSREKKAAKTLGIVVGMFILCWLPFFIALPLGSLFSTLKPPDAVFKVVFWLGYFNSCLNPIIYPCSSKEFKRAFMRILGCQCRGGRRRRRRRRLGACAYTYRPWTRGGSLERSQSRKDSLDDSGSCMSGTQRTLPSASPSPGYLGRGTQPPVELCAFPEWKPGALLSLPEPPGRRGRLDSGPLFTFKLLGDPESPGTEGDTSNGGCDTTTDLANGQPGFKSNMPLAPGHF
T1 sequence (P23944 whole entry): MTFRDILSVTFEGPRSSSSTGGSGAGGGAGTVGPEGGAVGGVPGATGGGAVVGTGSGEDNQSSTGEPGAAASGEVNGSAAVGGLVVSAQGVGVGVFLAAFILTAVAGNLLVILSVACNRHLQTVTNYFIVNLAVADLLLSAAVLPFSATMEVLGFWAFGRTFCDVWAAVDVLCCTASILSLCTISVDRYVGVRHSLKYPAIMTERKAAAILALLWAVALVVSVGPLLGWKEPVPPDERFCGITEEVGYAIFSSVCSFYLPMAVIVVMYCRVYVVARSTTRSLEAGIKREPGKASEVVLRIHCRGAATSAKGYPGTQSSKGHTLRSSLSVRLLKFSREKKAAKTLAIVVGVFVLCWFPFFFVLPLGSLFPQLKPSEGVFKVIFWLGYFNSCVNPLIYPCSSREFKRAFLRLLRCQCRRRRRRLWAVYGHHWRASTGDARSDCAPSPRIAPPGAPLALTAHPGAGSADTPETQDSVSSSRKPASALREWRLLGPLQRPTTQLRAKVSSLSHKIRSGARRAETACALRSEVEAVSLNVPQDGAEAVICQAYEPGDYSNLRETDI
T1 sequence (P43140 whole entry): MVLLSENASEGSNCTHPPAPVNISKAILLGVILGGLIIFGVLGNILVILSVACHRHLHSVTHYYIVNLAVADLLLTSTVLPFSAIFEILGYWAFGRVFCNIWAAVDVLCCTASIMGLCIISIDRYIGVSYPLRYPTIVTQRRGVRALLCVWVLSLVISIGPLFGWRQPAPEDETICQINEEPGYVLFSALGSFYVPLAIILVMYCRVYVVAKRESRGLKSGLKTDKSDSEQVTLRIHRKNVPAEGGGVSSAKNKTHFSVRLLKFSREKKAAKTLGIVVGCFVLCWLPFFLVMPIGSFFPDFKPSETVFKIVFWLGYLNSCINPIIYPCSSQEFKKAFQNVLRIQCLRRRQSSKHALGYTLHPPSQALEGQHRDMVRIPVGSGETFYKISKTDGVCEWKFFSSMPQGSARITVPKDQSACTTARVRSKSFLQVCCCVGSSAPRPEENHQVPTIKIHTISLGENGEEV

[3] = test system: Blood; experiment: Anti-aggregative activity in Wistar rat whole blood assessed as inhibition of collagen-induced aggregation preincubated for 3 mins followed by collagen induction measured for 6 mins; type: functional, tissue-based
[4] = test system: Rattus norvegicus; experiment: Hypotensive activity in normotensive Wistar rat assessed as systolic blood pressure at 5 mg/kg, iv measured after 30 mins (reference value: 119.2 to 148.6 mmHg); type: functional
[5] = test system: Rattus norvegicus; experiment: Cardiotoxicity in Wistar rat assessed as effect on QTC interval time at 5 mg/kg, iv measured after 15 mins (reference value: 136.7 to 146.2 ms); type: toxicity, organism-based; settings: in vivo, 0.25 h
[6] = test system: Rattus norvegicus; experiment: Cardiotoxicity in Wistar rat assessed as effect on QRS interval time at 5 mg/kg, iv measured after 1 min (reference value: 16.7 to 20.7 ms); type: toxicity, organism-based; settings: in vivo
[7] = test system: Rattus norvegicus; experiment: Cardiotoxicity in Wistar rat assessed as effect on QT interval time at 5 mg/kg, iv measured after 5 mins (reference value: 57.7 to 61 ms); type: toxicity, organism-based; settings: in vivo
[8] = test system: Rattus norvegicus; experiment: Hypotensive activity in normotensive Wistar rat assessed as diastolic blood pressure at 5 mg/kg, iv measured after 10 mins (reference value: 86.5 to 119.4 mmHg); type: functional
[9] = test system: Rattus norvegicus; experiment: Hypotensive activity in normotensive Wistar rat assessed as systolic blood pressure at 5 mg/kg, iv measured after 5 mins (reference value: 119.2 to 148.6 mmHg); type: functional
[10] = test system: Rattus norvegicus; experiment: Cardiotoxicity in Wistar rat assessed as effect on PQ interval time at 5 mg/kg, iv measured after 15 mins (reference value: 52 to 57 ms); type: toxicity, organism-based; settings: in vivo, 0.25 h
[11] = test system: Rattus norvegicus; experiment: Cardiotoxicity in Wistar rat assessed as effect on QTC interval time at 5 mg/kg, iv measured after 5 mins (reference value: 136.7 to 146.2 ms); type: toxicity, organism-based; settings: in vivo
[12] = test system: Rattus norvegicus; experiment: Hypotensive activity in normotensive Wistar rat assessed as diastolic blood pressure at 5 mg/kg, iv measured after 5 mins (reference value: 86.5 to 119.4 mmHg); type: functional
[13] = test system: Rattus norvegicus; experiment: Cardiotoxicity in Wistar rat assessed as effect on heart rate at 5 mg/kg, iv measured after 5 mins (reference value: 323 to 374.5 bpm); type: toxicity, organism-based; settings: in vivo
[14] = test system: Rattus norvegicus; experiment: Hypotensive activity in normotensive Wistar rat assessed as diastolic blood pressure at 5 mg/kg, iv measured after 30 mins (reference value: 86.5 to 119.4 mmHg); type: functional
[15] = test system: Rattus norvegicus; experiment: Hypotensive activity in normotensive Wistar rat assessed as systolic blood pressure at 5 mg/kg, iv measured after 20 mins (reference value: 119.2 to 148.6 mmHg); type: functional
[16] = test system: Rattus norvegicus; experiment: Hypotensive activity in normotensive Wistar rat assessed as systolic blood pressure at 5 mg/kg, iv measured after 60 mins (reference value: 119.2 to 148.6 mmHg); type: functional
[17] = test system: Rattus norvegicus; experiment: Cardiotoxicity in Wistar rat assessed as effect on QRS interval time at 5 mg/kg, iv measured after 5 mins (reference value: 16.7 to 20.7 ms); type: toxicity, organism-based; settings: in vivo
[18] = test system: Rattus norvegicus; experiment: Cardiotoxicity in Wistar rat assessed as effect on QT interval time at 5 mg/kg, iv measured after 1 min (reference value: 57.7 to 61 ms); type: toxicity, organism-based; settings: in vivo
[19] = test system: Rattus norvegicus; experiment: Cardiotoxicity in Wistar rat assessed as effect on QRS interval time at 5 mg/kg, iv measured after 15 mins (reference value: 16.7 to 20.7 ms); type: toxicity, organism-based; settings: in vivo, 0.25 h

Compound | Activity [1] | IC50 [3] [µM] | IC50 [2] [µM] | inhibition [3] | Activity [4] [mmHg] | Time [5] [ms] | Time [6] [ms] | Time [7] [ms] | Activity [8] [mmHg] | Activity [9] [mmHg] | Time [10] [ms] | Time [11] [ms] | Activity [12] [mmHg] | Activity [13] [bpm] | Activity [14] [mmHg] | Activity [15] [mmHg] | Activity [16] [mmHg] | Time [17] [ms] | Time [18] [ms] | Time [19] [ms] | further results
CC(C)(C)NCC(O)COc1cccc2c(=O)c3ccccc3oc12.Cl (racemic) | inactive | 33 |  | Dose-dependent effect |  |  |  |  |  |  |  |  |  |  |  |  |  |  |  |  | Ki [2]: 0.814 µM
COc1ccccc1OCCNCC(O)COc1cccc2c(=O)c3ccccc3oc12.Cl (racemic) | inactive | 49.5 | 0.1095 | Dose-dependent effect | 94.5 | 131.1 | 19 | 67.3 | 73 | 121.6 | 57.3 | 148.3 | 89.7 | 296 | 77.2 | 97.7 | 106.2 | 19.3 | 70 | 18.7 | Ki [2]: 0.8755 µM
Cl.O=c1c2ccccc2oc2cc(OCC(O)CN3CCN(c4ccccn4)CC3)ccc12 (racemic) | inactive | 77 | 0.3556 | Dose-dependent effect | 108.7 | 133.9 | 18.7 | 58.3 | 80.5 | 114.7 | 56 | 133.3 | 81 | 313 | 79.5 | 108.8 | 102.5 | 20 | 59 | 21.3 | 
COc1ccc(CCNCC(O)COc2cccc3c(=O)c4ccccc4oc23)cc1OC.Cl (racemic) | inactive |  |  |  | 128 | 132.7 | 22.8 | 66.7 | 105 | 135.4 | 59.3 | 138.4 | 101.4 | 254.7 | 96.2 | 127 | 129.8 | 22.7 | 61.3 | 21.3 | Ki [2]: 0.274 µM
Cl.O=c1c2ccccc2oc2c(OCC(O)CN3CCN(c4ccccn4)CC3)cccc12 (racemic) | inactive | 64.1 | 0.171 | Dose-dependent effect | 126.6 | 144 | 18.5 | 59.5 | 106 | 136.8 | 59 | 144.8 | 110.8 | 356 | 99.8 | 129.8 | 126.4 | 18 | 58.7 | 19.2 | 

More lines, main results first:

Activity [1] | IC50 [3] [µM] | IC50 [2] [µM] | Compound | inhibition [3] | Activity [4] [mmHg] | Time [5] [ms] | Time [6] [ms] | Time [7] [ms] | Activity [8] [mmHg] | Activity [9] [mmHg] | Time [10] [ms] | Time [11] [ms] | Activity [12] [mmHg] | Activity [13] [bpm] | Activity [14] [mmHg] | Activity [15] [mmHg] | Activity [16] [mmHg] | Time [17] [ms] | Time [18] [ms] | Time [19] [ms] | further results
inactive | 33.4 | 0.3498 | COc1ccccc1CCNCC(O)COc1cccc2c(=O)c3ccccc3oc12.Cl (racemic) | Dose-dependent effect | 126 | 148.5 | 18 | 61 | 101.8 | 146.2 | 51 | 148.2 | 108.6 | 336 | 97.2 | 128.2 | 117 | 19 | 60.5 | 17 | Ki [2]: 4.676 µM
inactive | 86.8 | 1.87 | COc1ccccc1CNCC(O)COc1cccc2c(=O)c3ccccc3oc12.Cl (racemic) | Dose-dependent effect | 126 | 139.3 | 22 | 64.7 | 107 | 149.3 | 57.7 | 129.8 | 107.2 | 243.7 | 96 | 133 | 125.3 | 22.7 | 65.5 | 21.3 | 
